US20190183922A1, “NOVEL ACTIVE IMMUNOMODULATORY AGENT AND COMPOSITION CONTAINING SAME” (UNIVERSITE CLERMONT AUVERGNE, priority 2016, published 2019)
“And” between values parts separate entries of the source, which are not always exact repeats. Equal values may be shown once.

Tested on: co-culture of human dermal endothelial cells (HMVECs) and normal human dermal fibroblasts (NHDFs)
Test: Formation of pseudotubes in an HMVEC+NHDF co-culture (anti-vWF immunolabelling, image analysis)
Type: cell-based
Experimental: The effects of the high-molecular-weight sulphated polysaccharide (HMWP) on the formation of pseudotubes was studied in a co-culture of human dermal endothelial cells (HMVECs) and normal human dermal fibroblasts (NHDFs), in basal condition or stimulated by VEGF (analysis by immunolabelling in situ).
The HMVEC and NHDF cells in co-culture were seeded in 96-well plates and cultured for 24 hours in culture medium.
The culture medium used is as follows: • EBM-2 (Endothelial cell basal medium 2) supplemented with 5% foetal calf serum (FCS), rhEGF, rhFGF, R3 IGF-1, hydrocortisone, vitamin C, gentamycin, • DMEM supplemented with 2 mM L-glutamine, 50 U/ml penicillin, 50 μg/ml streptomycin and 10% FCS.
The medium was then replaced with test medium containing or not containing (control) the compound to be tested and/or the VEGF inductor reference tested at 100 ng/ml; the compound was tested simultaneously in basal and stimulated condition (in the absence and in the presence of VEGF).
The test medium used was as follows: • EBM-2 (Endothelial cell basal medium 2) supplemented with rhEGF, rhFGF, R3 IGF-1, hydrocortisone, vitamin C, gentamycin, • DMEM supplemented with 2 mM L-glutamine, 50 U/ml penicillin, 50 μg/ml streptomycin and 1% FCS.
The cells were then incubated for 7 days, repeating the treatment after incubating for 72 hours. All the experimental conditions were produced in triplicate (n=3).
After incubation, the culture medium was removed and the cells were rinsed, fixed and permeabilized. The cells were then labelled with anti-VWF (Von Willebrand Factor) primary antibody. […] Simultaneously, the cell nuclei were coloured with Hoechst 33258 (bis-benzimide).
The formation of the pseudotubes was observed using a NIKON Diaphot 300 microscope (×4 objective lens). The digital images (1 photo per well) were then recorded with a NIKON DS-Ri1 camera and the NIS-Elements 4.13.04 software.
The labelling was quantified by measuring the entire surface of the pseudotubes using ImageJ software.
The formation of pseudotubes in the co-culture of endothelial cells (HMVECs) and dermal fibroblasts (NHDFs) after incubating for 7 days was measured by image analysis following immunolabelling with an anti-vWF antibody, the vWF being specifically expressed by the HMVEC cells.
The stimulation percentage is calculated according to the following formula: […]
The inhibition percentage is calculated according to the following formula: […]

[1] = VEGF inductor reference 100 ng/ml, 7 days

VEGF
% Control [1]: 1759% | % Stimulation [1]: 1659% | Surface of the pseudotubes (VEGF inductor reference 100 ng/ml, 7 days, individual wells): 2.15 mm^2 and 2.52 mm^2 and 1.84 mm^2 | Average Surface (VEGF inductor reference 100 ng/ml, 7 days, n=3): 2.17 mm^2 | Organization of the endothelial cells into pseudotubes (reference VEGF 100 ng/ml): clearly led to an organization of the endothelial cells into pseudotubes
